{"source": "paper PMC4448987", "about": "“A neuroligin-1-derived peptide stimulates phosphorylation of the NMDA receptor NR1 subunit and rescues MK-801-induced decrease in long-term potentiation and memory impairment” (Pharmacology Research & Perspectives, 2015)", "key": {"[1]": {"test_system": "hippocampal slices, CA3-CA1 synapse (fEPSP slope)", "assay": "LTP in acute hippocampal slices from mice injected s.c.", "type": "in vivo, C57BL/6N mice", "conditions": "mice injected with neurolide-1 10 mg/kg s.c. 24 h and 1 h before sacrifice plus MK-801 0.1 mg/kg s.c.; slope 25-30 min after HFS vs before; mean ± SEM, n = 6", "description": "Juvenile C57BL/6N mice of both sexes (postnatal day 16–24; Taconic, Ejby, Denmark) were injected subcutaneously (s.c.) with 10 mg/kg of the neurolide-1 peptide solution (10 mg/mL) and again 23 h later with 10 mg/kg of the neurolide-1 peptide solution (10 mg/mL) and 0.1 mg/kg MK-801 solution (0.025 mg/mL). Mice receiving the injection with the MK-801 solution only or untreated mice served as control groups. The young mice were rapidly and humanely euthanized with a minimum of distress by decapitation at a time point corresponding to 24 h after first injection. Preceding anesthetic was omitted to preserve the tissue free of drug residues and brain slice functions as unaltered as possible when performing the physiological measurements. After decapitation, the brain was removed. […]\nMeasurements were made in oxygenated aCSF at room temperature (1.1 mL/min). […] The field potential in the stratum radiatum of the CA1 area of the hippocampus was recorded with an extracellular glass microelectrode (4–6 MΩ, filled with aCSF), positioned at least 500 μm away from the stimulation electrode. […]"}, "[2]": {"test_system": "NMDA receptor NR1 subunit (serine 897)", "assay": "NMDA receptor phosphorylation assay (immunoblot, anti-phospho-Ser897-NR1) in cultured cortical neurons", "type": "cell-based, Wistar rat", "conditions": "cultured rat cortical neurons, 0.1, 0.3, 1 and 2.7 μmol/L for 5 min, eight independent experiments", "description": "Cortical neurons were obtained from Wistar rat embryos at embryonic day 19, of both sexes, basically as previously described (Maar et al. [1997]) (see Data S1). Briefly, animals were rendered unconscious by concussive stunning and euthanized by cervical dislocation. Hereafter, the embryonic brains were collected and cortical neurons were dissociated and seeded in 60-mm tissue culture dishes coated with 1 μg/mL of poly-D-lysine (Sigma-Aldrich, St. Louis, MO) and grown for 8 days before treatment. Then, the cultures were stimulated with either the NL1 ectodomain (0.2, 0.6, 1.8, and 5.4 nmol/L) or neurolide-1 (0.1, 0.3, 1, and 2.7 μmol/L) for 5 min. The cells were lysed, and proteins were resolved by sodium dodecyl sulfate-polyacrylamide gel electrophoresis followed by immunoblotting using rabbit anti-Ser897-NR1 antibody (1:500; Millipore, Billerica, MA), mouse anti-β-tubulin antibody (1:50,000; Sigma-Aldrich), and IRDye secondary antibodies (Odyssey, Lincoln, NE). The bands were visualized using the Odyssey CLX Infrared Imaging System (Odyssey). Four independent experiments with stimulation by NL1 ectodomain and eight independent experiments with stimulation by neurolide-1 were performed."}, "male Wistar rats": {"test_system": "male Wistar rats", "assay": "Spatial memory in the Morris water maze", "type": "in vivo", "conditions": "rat", "description": "The Morris water-maze test (Morris [1984]) was performed as previously described (Kraev et al. [2011]) with slight modifications (see Data S1). Male Wistar rats (Charles River), weighing 150–200 g on the day of arrival were used. To investigate for potential effects on memory consolidation, neurolide-1 was injected immediately after the training sessions on day 1 and 2 (n = 12 in each group). To test for potential effects on memory acquisition neurolide-1 was injected 2 h before start of training on training day 1 and 2 (n = 12 in each group). Finally, to test for potential effects on MK-801-induced learning deficiencies neurolide-1 was injected 2 h before start of training on day 2 and 3 in animals, which had received an injection with MK-801 30 min earlier (n = 6–9 in each group). In a slightly modified version of the MK-801 experiments a group of animals received a neurolide-1 injection immediately after the training sessions on day 1, and then a neurolide-1 injection 2 h before start of training on day 2, preceded by an MK-801 injection 30 min earlier (n = 12 in each group). Terminally, rats were rapidly and humanely rendered unconscious by concussive stunning and euthanized by cervical dislocation.\nThe Morris water maze test (Morris, 1984) was conducted in a 160 cm wide circular black tank placed in a dimly lit room and filled with 21°C water up to 20 cm from the top. The tank was surrounded by visual orientation marks, and a 10 cm wide escape platform was placed 1.5 cm below the water level for it to be unseen. A video camera was placed above the tank and connected to a computerized tracking system (Ethovision 3.1, Noldus IT, Wageningen, Holland). The tank was divided into four equal-size quadrants that also served as starting positions. The latency to locate the platform, time spent swimming, and swimming speed were scored within the defined zones (i.e., total area, quadrants, and a platform circle that was 60 cm in diameter with the center in the original platform location). Prior to training, the rats were handled 2 min daily for 5 days to minimize stress during the experiments.\nReference memory training consisted of three consecutive trials daily for 3 days. Each trial began with placing the animal in the water facing the wall of the pool. The starting position differed for each trial but was identical for all animals. In each trial, the animal was allowed 90 s to locate the platform. […] After each trial, the rats were allowed 20 s of orientation time on the platform and then removed from the pool for 20 s before the next trial was initiated. After the last trial each day, the animals were dried and returned to their home cages.\nTo test for effects on long-term memory, the animals were tested in a probe trial 24 h after the last reference memory training. In the probe trial, the platform was removed, and the animals began from a position in a quadrant adjacent to the original platform quadrant. The rats were allowed to swim for 60 s, after which the trial was stopped."}}}
{"sequence": "SEGNRWSNSTKGLFQRA [neurolide-1]", "values": [{"measurement": "increase of fEPSP slope after high-frequency stimulation (LTP)", "setting": "[1]", "result": "57 ± 12", "unit": "%"}, {"measurement": "NR1 phosphorylation on serine 897", "setting": "[2]", "result": "induced NR1 phosphorylation proportionally to the increase in peptide concentration"}, {"measurement": "learning, velocity and memory retention in probe test (memory acquisition)", "setting": "male Wistar rats; 10 mg/kg s.c. 2 h before training sessions on days 1 and 2, n = 12", "result": "No effect"}, {"measurement": "learning on day 2 or 3 and memory retention in probe test (memory consolidation)", "setting": "male Wistar rats; 10 mg/kg s.c. immediately after last training session on days 1 and 2, probe test 24 h after last training, n = 12", "result": "No effect"}, {"measurement": "velocity in the water maze", "setting": "male Wistar rats; MK-801 0.1 mg/kg s.c. with or without neurolide-1 10 mg/kg s.c. (long-term regimen), n = 12", "result": "Neither treatments affected velocity"}, {"measurement": "effect on MK-801-impaired learning and memory retention, short-term treatment", "setting": "male Wistar rats; neurolide-1 10 mg/kg s.c. 30 min after MK-801 0.1 mg/kg and 2 h before first trial on days 2 and 3, n = 6-9", "result": "did not reduce the effect of MK-801"}, {"measurement": "effect on MK-801-impaired learning (escape latency)", "setting": "male Wistar rats; neurolide-1 10 mg/kg s.c. after training on day 1 and on day 2, 30 min after MK-801 0.1 mg/kg and 2 h before first training session, n = 12", "result": "attenuated the effect of the NMDA receptor inhibitor on learning"}, {"measurement": "effect on MK-801-impaired memory in the probe test 24 h after last training session", "setting": "male Wistar rats; neurolide-1 10 mg/kg s.c. after training on day 1 and on day 2, 30 min after MK-801 0.1 mg/kg, n = 12", "result": "completely abrogated the effect of MK-801"}]}
